# Data as given in patent US8501786B2, “Hydroxymethyl pyrrolidines as beta 3 adrenergic receptor agonists” (Merck Sharp & Dohme Corp., priority 2009, dated 2013).
# Counter-ions that a name gives are not always drawn.
# Target: T1, human β3 adrenergic receptor (Homo sapiens, UniProt P13945)
# T1 construct: stably transfected with the cloned β-adrenergic receptor (β1, β2 or β3); expressed in transfected cells; host or cells: Chinese hamster ovary (CHO) cells, stably transfected
# Assay: Functional assay: cAMP production (LANCE TR-FRET) in CHO cells stably transfected with cloned β3 adrenergic receptor
# Format: cell-based
# Conditions: Table 2; cAMP production, CHO cells expressing human β3 AR; read-out: Human β3 functional
# T1 sequence (P13945 whole entry): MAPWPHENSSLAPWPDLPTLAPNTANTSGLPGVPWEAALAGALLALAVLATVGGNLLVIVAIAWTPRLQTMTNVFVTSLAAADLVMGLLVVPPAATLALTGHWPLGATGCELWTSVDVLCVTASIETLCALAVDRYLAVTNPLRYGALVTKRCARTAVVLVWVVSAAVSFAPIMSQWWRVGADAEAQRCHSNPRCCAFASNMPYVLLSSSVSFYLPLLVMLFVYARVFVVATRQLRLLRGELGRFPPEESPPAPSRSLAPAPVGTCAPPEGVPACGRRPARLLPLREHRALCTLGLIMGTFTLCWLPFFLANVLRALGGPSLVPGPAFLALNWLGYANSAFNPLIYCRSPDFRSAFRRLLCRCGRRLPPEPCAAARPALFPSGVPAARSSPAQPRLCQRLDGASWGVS
row,Compound,EC50 [nM]
1,Nc1nc(CC(=O)Nc2ccc(CC3CC[C@H]([C@H](O)c4cccnc4)N3)cc2)cs1 (stereo partly shown) [Example 3],1 to 10
2,O=C(Cc1n[nH]c(-c2ccccc2)n1)Nc1ccc(CC2CC[C@H]([C@H](O)c3cccnc3)N2)cc1 (stereo partly shown) [Example 4],1 to 10
3,O=C(Cn1ncc2ccccc21)Nc1ccc(CC2CC[C@H]([C@H](O)c3cccnc3)N2)cc1 (stereo partly shown) [Example 5],11 to 100
4,O=C(Cn1cc2ccccc2n1)Nc1ccc(CC2CC[C@H]([C@H](O)c3cccnc3)N2)cc1 (stereo partly shown) [Example 6],11 to 100
5,O=C(Cn1nc2ccccc2n1)Nc1ccc(CC2CC[C@H]([C@H](O)c3cccnc3)N2)cc1 (stereo partly shown) [Example 7],11 to 100
6,O=C(Cn1nc(Cc2ccccc2)c2ccccc2c1=O)Nc1ccc(CC2CC[C@H]([C@H](O)c3cccnc3)N2)cc1 (stereo partly shown) [Example 8],1 to 10
7,Cc1nn(CC(=O)Nc2ccc(CC3CC[C@H]([C@H](O)c4cccnc4)N3)cc2)c(=O)c2ccccc12 (stereo partly shown) [Example 9],1 to 10
8,Cc1nc(CC(=O)Nc2ccc(CC3CC[C@H]([C@H](O)c4cccnc4)N3)cc2)c(C)s1 (stereo partly shown) [Example 10],11 to 100
9,Cc1nc2ccccc2c(=O)n1CC(=O)Nc1ccc(CC2CC[C@H]([C@H](O)c3cccnc3)N2)cc1 (stereo partly shown) [Example 11],1 to 10
10,O=C(Cn1c(=O)ncc2ccccc21)Nc1ccc(CC2CC[C@H]([C@H](O)c3cccnc3)N2)cc1 (stereo partly shown) [Example 13],1 to 10
11,O=C(Cc1ccccn1)Nc1ccc(CC2CC[C@H]([C@H](O)c3cccnc3)N2)cc1 (stereo partly shown) [Example 14],11 to 100
12,Cc1nc(CC(=O)Nc2ccc(CC3CC[C@H]([C@H](O)c4cccnc4)N3)cc2)cs1 (stereo partly shown) [Example 15],11 to 100
13,O=C(Cc1c(-c2ccccc2)[nH]c2ccccc12)Nc1ccc(CC2CC[C@H]([C@H](O)c3cccnc3)N2)cc1 (stereo partly shown) [Example 16],11 to 100
14,O=C(Cc1nc2ccccc2[nH]1)Nc1ccc(CC2CC[C@H]([C@H](O)c3cccnc3)N2)cc1 (stereo partly shown) [Example 17],11 to 100
15,O=C(Cn1c(-c2ccccc2)nc2ccccc21)Nc1ccc(CC2CC[C@H]([C@H](O)c3cccnc3)N2)cc1 (stereo partly shown) [Example 18],11 to 100
16,O=C(Cc1c[nH]c2ccccc12)Nc1ccc(CC2CC[C@H]([C@H](O)c3cccnc3)N2)cc1 (stereo partly shown) [Example 19],1 to 10
17,Nc1ncn(CC(=O)Nc2ccc(CC3CC[C@H]([C@H](O)c4cccnc4)N3)cc2)n1 (stereo partly shown) [Example 20],1 to 10
18,Cc1sc2ncn(CC(=O)Nc3ccc(CC4CC[C@H]([C@H](O)c5cccnc5)N4)cc3)c(=O)c2c1C (stereo partly shown) [Example 21],1 to 10
19,O=C(Cc1ncccn1)Nc1ccc(CC2CC[C@H]([C@H](O)c3cccnc3)N2)cc1 (stereo partly shown) [Example 22],11 to 100
20,Cc1nnc(CC(=O)Nc2ccc(CC3CC[C@H]([C@H](O)c4cccnc4)N3)cc2)[nH]1 (stereo partly shown) [Example 23],101 to 1000
21,O=C(Cc1nnc(-c2ccc(Cl)cc2)[nH]1)Nc1ccc(CC2CC[C@H]([C@H](O)c3cccnc3)N2)cc1 (stereo partly shown) [Example 24],11 to 100
22,O=C(Cc1nnc(-c2ccncc2)[nH]1)Nc1ccc(CC2CC[C@H]([C@H](O)c3cccnc3)N2)cc1 (stereo partly shown) [Example 25],11 to 100
23,O=C(Cc1nnc(Cc2ccccc2)[nH]1)Nc1ccc(CC2CC[C@H]([C@H](O)c3cccnc3)N2)cc1 (stereo partly shown) [Example 26],11 to 100
24,O=C(Cc1nnc(-c2cscn2)[nH]1)Nc1ccc(CC2CC[C@H]([C@H](O)c3cccnc3)N2)cc1 (stereo partly shown) [Example 27],1 to 10
25,Cc1cccc(CC(=O)Nc2ccc(CC3CC[C@H]([C@H](O)c4cccnc4)N3)cc2)n1 (stereo partly shown) [Example 28],101 to 1000
26,O=C(Cc1csc(C(F)(F)F)n1)Nc1ccc(CC2CC[C@H]([C@H](O)c3cccnc3)N2)cc1 (stereo partly shown) [Example 29],11 to 100

row,Compound,EC50 [nM]
1,O=C(Nc1ccc(CC2CC[C@H]([C@H](O)c3cccnc3)N2)cc1)[C@@H]1CCCN1c1nccs1 (stereo partly shown) [Example 30],1 to 10
2,COc1cccc(N2CCC[C@H]2C(=O)Nc2ccc(CC3CC[C@H]([C@H](O)c4cccnc4)N3)cc2)c1 (stereo partly shown) [Example 31],1 to 10
3,O=C(Nc1ccc(CC2CC[C@H]([C@H](O)c3cccnc3)N2)cc1)c1ccccc1CCc1ccccc1 (stereo partly shown) [Example 32],11 to 100
4,O=C(Nc1ccc(CC2CC[C@H]([C@H](O)c3cccnc3)N2)cc1)c1ccccc1-c1ncc[nH]1 (stereo partly shown) [Example 33],11 to 100
5,O=C(Nc1ccc(CC2CC[C@H]([C@H](O)c3cccnc3)N2)cc1)c1ccccc1-c1nc2ccccc2s1 (stereo partly shown) [Example 34],11 to 100
6,O=C(Nc1ccc(CC2CC[C@H]([C@H](O)c3cccnc3)N2)cc1)c1ccccc1-n1nccn1 (stereo partly shown) [Example 35],11 to 100
7,O=C(Nc1ccc(CC2CC[C@H]([C@H](O)c3cccnc3)N2)cc1)c1ccccc1C1CCCCC1 (stereo partly shown) [Example 36],101 to 1000
8,O=C(Nc1ccc(CC2CC[C@H]([C@H](O)c3cccnc3)N2)cc1)c1ccccc1N1CCCC1 (stereo partly shown) [Example 37],101 to 1000
9,O=C(Cn1cncn1)Nc1ccc(CC2CC[C@H]([C@H](O)c3cccnc3)N2)cc1 (stereo partly shown) [Example 38],11 to 100
10,O=C(Cn1nccn1)Nc1ccc(CC2CC[C@H]([C@H](O)c3cccnc3)N2)cc1 (stereo partly shown) [Example 39],11 to 100
11,O=C(Cn1ccccc1=O)Nc1ccc(CC2CC[C@H]([C@H](O)c3cccnc3)N2)cc1 (stereo partly shown) [Example 40],1 to 10
12,O=C(Cc1cnccn1)Nc1ccc(CC2CC[C@H]([C@H](O)c3cccnc3)N2)cc1 (stereo partly shown) [Example 41],11 to 100
13,O=C(CN1CCCCC1=O)Nc1ccc(CC2CC[C@H]([C@H](O)c3cccnc3)N2)cc1 (stereo partly shown) [Example 42],11 to 100
14,O=C(CN1C(=O)CCC1=O)Nc1ccc(CC2CC[C@H]([C@H](O)c3cccnc3)N2)cc1 (stereo partly shown) [Example 43],11 to 100
15,O=C(CN1CCOC1=O)Nc1ccc(CC2CC[C@H]([C@H](O)c3cccnc3)N2)cc1 (stereo partly shown) [Example 44],11 to 100
16,O=C(CN1CCSC1=O)Nc1ccc(CC2CC[C@H]([C@H](O)c3cccnc3)N2)cc1 (stereo partly shown) [Example 45],1 to 10
17,Cc1cn(CC(=O)Nc2ccc(CC3CC[C@H]([C@H](O)c4cccnc4)N3)cc2)nn1 (stereo partly shown) [Example 46],11 to 100
18,O=C(Cc1cncnc1O)Nc1ccc(CC2CC[C@H]([C@H](O)c3cccnc3)N2)cc1 (stereo partly shown) [Example 47],11 to 100
19,COc1ncncc1CC(=O)Nc1ccc(CC2CC[C@H]([C@H](O)c3cccnc3)N2)cc1 (stereo partly shown) [Example 48],11 to 100
20,Nc1ncncc1CC(=O)Nc1ccc(CC2CC[C@H]([C@H](O)c3cccnc3)N2)cc1 (stereo partly shown) [Example 49],11 to 100
21,CNc1ncncc1CC(=O)Nc1ccc(CC2CC[C@H]([C@H](O)c3cccnc3)N2)cc1 (stereo partly shown) [Example 50],101 to 1000
22,COc1cc2ncn(CC(=O)Nc3ccc(CC4CC[C@H]([C@H](O)c5cccnc5)N4)cc3)c(=O)c2cc1OC (stereo partly shown) [Example 51],1 to 10
23,O=C(Cn1ncccc1=O)Nc1ccc(CC2CC[C@H]([C@H](O)c3cccnc3)N2)cc1 (stereo partly shown) [Example 52],1 to 10
24,O=C(Cn1cnccc1=O)Nc1ccc(CC2CC[C@H]([C@H](O)c3cccnc3)N2)cc1 (stereo partly shown) [Example 53],1 to 10
25,O=C(Nc1ccc(CC2CC[C@H]([C@H](O)c3cccnc3)N2)cc1)c1c[nH]c2cccnc12 (stereo partly shown) [Example 54],101 to 1000

# Same assay, conditions: cAMP production, CHO cells expressing human β3 AR; read-out: human Beta-3 agonist functional activity
row,Compound,EC50 [nM]
1,"O=C(CN1CCCC1=O)Nc1ccc(C[C@@H]2CC[C@H]([C@H](O)c3cccnc3)N2)cc1 [Example 2, N-[4-({(2S,5R)-5-[(R)-Hydroxy(pyridin-3-yl)methyl]pyrrolidin-2-yl}methyl)phenyl]-2-(2-oxopyrrolidin-1-yl)acetamide, trfluoroacetic acid salt]",< 100
